“And” between values parts separate entries of the source, which are not always exact repeats. Identical values can stand only once. Inconclusive results and toxic doses are left out. Residues, ends and D or L forms follow the SMILES beside them. *: point of attachment. Cbz = O=C(OCc1ccccc1)*; OBn = c1ccc(CO*)cc1
System: CD2F1 mice, L1210 leukemia ip, survival T/C
Assay: NCI In Vivo Anticancer Drug Screen. Data for tumor model L1210 Leukemia (intraperitoneal) in CD2F1 (CDF1) mice
Conditions: higher = longer survival
Procedure, shortened: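 Compound-dosed mice with transplantable tumor versus matched vehicle controls; endpoint ratio T/C reported.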

In the case of O=C(CNC(=O)OCc1ccccc1)NCC(=O)OCc1ccccc1 (Cbz-Gly-Gly-OBn), the T/C (endpoint: mean survival time, dose: 100.0 mg/kg/injection, schedule: Q01DX009 (ip), vehicle: saline with Tween-80) is reported as 93 % of control, the T/C (endpoint: mean survival time, dose: 100.0 mg/kg/injection, schedule: Q04DX003 (ip), vehicle: saline with Tween-80) is reported as 96 % of control and the T/C (endpoint: mean survival time, dose: 200.0 mg/kg/injection, schedule: Q01DX009 (ip), vehicle: saline with Tween-80) is reported as 92 % of control. For the same compound, the T/C (endpoint: mean survival time, dose: 200.0 mg/kg/injection, schedule: Q04DX003 (ip), vehicle: saline with Tween-80) was 93 % of control, the T/C (endpoint: mean survival time, dose: 400.0 mg/kg/injection, schedule: Q01DX009 (ip), vehicle: saline with Tween-80) was 89 % of control and the T/C (endpoint: mean survival time, dose: 400.0 mg/kg/injection, schedule: Q04DX003 (ip), vehicle: saline with Tween-80) was 93 % of control.

With Cc1ccccc1S(=O)(=O)N(C)C the T/C (endpoint: mean survival time, dose: 100.0 mg/kg/injection, schedule: Q04DX003 (ip), vehicle: saline sonified) was 97 % of control, the T/C (endpoint: mean survival time, dose: 200.0 mg/kg/injection, schedule: Q04DX003 (ip), vehicle: saline sonified) was 94 % of control and the T/C (endpoint: mean survival time, dose: 400.0 mg/kg/injection, schedule: Q04DX003 (ip), vehicle: saline sonified) was 92 % of control.

For COC1C(N)C(OC2C(Oc3cccc4c(O)c5c(=O)oc6ccc(C)c7c(=O)oc(c34)c5c67)OC(C)C(O)C2(C)O)OC(C)C1O (configuration not stated), the T/C (endpoint: median survival time, dose: 1.25 mg/kg/injection, schedule: Q01DX005 (ip), vehicle: other) was 151 % of control, the T/C (endpoint: median survival time, dose: 3.0 mg/kg/injection, schedule: Q01DX005 (ip), vehicle: other) was 177 % of control and the T/C (endpoint: median survival time, dose: 5.0 mg/kg/injection, schedule: Q01DX005 (ip), vehicle: other) was 164 % of control and 177 % of control.

With CC(=O)N(C1=CC(=O)c2ccccc2C1=O)c1ccc(C)cc1 the T/C (endpoint: mean survival time, dose: 75.0 mg/kg/injection, schedule: Q01DX001 (ip), vehicle: saline) was 100 % of control and the T/C (endpoint: mean survival time, dose: 150.0 mg/kg/injection, schedule: Q01DX001 (ip), vehicle: saline) was 100 % of control.

For O=C(CC(=O)C(F)(F)F)C(F)(F)F.[C-]#[O+].[C-]#[O+].[Mn].c1ccc([PH+](c2ccccc2)c2ccccc2)cc1.c1ccc([PH+](c2ccccc2)c2ccccc2)cc1, the T/C (endpoint: mean survival time, dose: 12.5 mg/kg/injection, schedule: Q04DX002 (ip), vehicle: saline with Tween-80) was 91 % of control, the T/C (endpoint: mean survival time, dose: 25.0 mg/kg/injection, schedule: Q04DX002 (ip), vehicle: saline with Tween-80) was 91 % of control and the T/C (endpoint: mean survival time, dose: 50.0 mg/kg/injection, schedule: Q04DX002 (ip), vehicle: saline with Tween-80) was 95 % of control.
